These results are taken from article PMC7221793, “Metabolism and Pharmacokinetics of SP-8356, a Novel (1S)-(−)-Verbenone Derivative, in Rats and Dogs and Its Implications in Humans” (Molecules, 2020).

Data set [1] concerns mouse xenograft model of triple-negative breast cancer. Also on record: method as in PMID 31036845. The settings on record: in mice ref 10; cited from earlier work.
Data set [2] is described as follows: Metabolic stability in rat liver S9 fraction. It counts as in vitro ADME. The protocol: (§1) The metabolic stability of SP-8356 was investigated using rat, dog and human liver S9 fractions fortified with cofactors for major drug metabolism. The final reaction mixture contained 1 mg/mL rat, dog or human liver S9 fraction, 1 mM cofactors (NADPH, UDPGA, PAPS, SAM and GSH), 2 mM MgCl2, 25 µg/mL alamethicin and 1 µM SP-8356 in final volume of 200 µL. The metabolic reactions were initiated by adding 10 mM cofactor solution to reaction mixtures preincubated for 5 min at 37 °C. The reactions were terminated at (0, 5, 15, 30 and 60) min by the addition of 200 µL ice-cold acetonitrile containing HSDH (1 µg/mL). The subsequent sample preparation and analytical methods were the same as those described in Section 4.5.
(§2) The degradation t1/2 of SP-8356 was calculated using the following Equation:(1) t1/2=0.693/k, where, k was the first-order rate constant calculated by one phase decay nonlinear regression using GraphPad Prism™ 7 (GraphPad Software, La Jolla, CA, USA). CLint was calculated using the following Equation:(2) CLint=k/fu,S9· mL incubation/mg liver S9· mg S9/g liver·g liver/kg body wt.
(§3) The scaling factors were (136, 120.7 and 120.7) mg S9 protein/g liver and (40, 32 and 26) g liver/kg body weight for rats, dogs and humans, respectively. For simplicity, the fraction unbound in S9 incubation (fu, S9) was assumed to be one. CLH was predicted using the hepatic well-stirred model, as follows:(3) CLH=QH·fu·CLint/QH+fu·CLint, where, QH was the hepatic blood flow of (55, 30 and 20) mL/min/kg for rats, dogs and humans, respectively. The fraction unbound (fu) was assumed to be one. EH was calculated using the following Equation:(4) EH=CLH/QH.

A short description of data set [3]: In vivo metabolite identification, pooled rat plasma (Q-TOF LC-MS/MS). The settings on record: i.v. SP-8356 20 mg/kg. The protocol:
Plasma samples from the i.v. administrations described in Section 4.2 and Section 4.3 were used in this study. Plasma samples pooled at each time point were subjected to sample preparation as described in Section 4.2. The prepared samples were analyzed by Agilent 6530 Q-TOF LC-MS/MS system equipped with dual AJS ESI ion source and Agilent 1200 series HPLC system as described below.
Chromatographic separation was achieved on an Agilent Eclipse C18 column (2.1 mm × 100 mm, 3.5 µm) by a gradient elution with a mobile phase consisting of 0.1 vol.% formic acid in water (A) and 0.1 vol.% formic acid in acetonitrile (B) at 50 °C: starting with 5 vol.% B for 2 min, ramping to 95 vol.% B over 1 min, maintaining for 3 min. The mobile phase flow rate was kept at 0.45 mL/min throughout the run. The sample injection volume was 5 µL. Ion source parameters were set as follows: capillary voltage, 3500 V; drying gas, 12 L/min and 300 °C; nebulizer gas, 30 psi; sheath gas, 12 L/min and 300 °C. Mass spectra were acquired in negative ion auto MS/MS mode (F, 135 V; CE, 25 eV) with full scan range of m/z (100–1000) and mass scan rate of 8 spectra/s. Metabolites were identified using Agilent MassHunter Metabolite ID software (version B.04.00) (Santa Clara, CA, USA). Chromatograms and mass spectra of the parent and identified metabolites were extracted using Agilent MassHunter Qualitative Analysis software (version B.05.00) (Santa Clara, CA, USA).

Data set [4] can be described thus: Metabolic stability in human liver S9 fraction. Particulars: for t1/2 / half-life at 1 µM: 1 μM. It counts as in vitro ADME. The method, then: as §1, §2, §3
Data set [5] is described as follows: Bioactivation studies in rat liver S9 fraction. In kind it is in vitro ADME. Particulars: rat liver S9 1 mg/mL; for remaining at 1 h, 5 µM: Sprague-Dawley, rat, liver S9 fraction, read-out: SP-8356 (% Remaining at 60 min). The method, then:
SP-8356 was incubated with 1 mg/mL rat liver S9 fraction in 0.1 M potassium phosphate buffer (pH 7.4) in the absence and presence of GSH, AA, NADPH, UDPGA, PAPS and SAM. The final reaction mixture contained 5 µM SP-8356, 8 mM MgCl2, 25 µg/mL alamethicin and 1 mM cofactor in final volume of 160 µL. The reaction was initiated by adding a 10 mM cofactor solution prepared in 0.1 M potassium phosphate buffer (pH 7.4), following a 5 min preincubation of the incubation mixture at 37 °C. The final study groups were as follows: no cofactor (control), AA, NADPH, GSH, GSH + AA, GSH + NADPH and GSH + UDPGA + PAPS + SAM. The reaction was quenched at (0 and 60) min by adding 160 µL of ice-cold acetonitrile containing HSDH (1 µg/mL). Following a brief vortexing and sonication, the mixtures were centrifuged at 3,000 rpm at 4 °C for 20 min. The supernatant mixed with the same volume of deionized water on an Agilent 96-well plate was analyzed by Agilent 6530 Q-TOF LC-MS/MS system equipped with dual AJS ESI ion source and Agilent 1200 series HPLC system, as follows.
Chromatographic separation was performed on a Phenomenex Kinetex C18 column (50 mm × 2.1 mm, 2.6 µm) (USA) with 0.1 vol.% formic acid in deionized water (A) and 0.1 vol.% formic acid in acetonitrile (B) running at 0.45 mL/min in the following gradient elution: 2 vol.% B for the initial 2 min, linear gradient to 95 vol.% B for 1 min and maintaining 95 vol.% B for 5 min. The injection volume was 5 μL and the column temperature was set at 50 °C. The ion source and mass analyzer parameters of the mass spectrometer were the same as in Section 4.4. LC-MS chromatograms and mass spectra were extracted using Agilent MassHunter Qualitative Analysis software (version B.05.00) (Santa Clara, CA, USA).

Molecules are shown by their SMILES. Where two headings read alike, the source gives them in different places.

Turning to `COc1cc(/C=C/C2=CC(=O)[C@H]3C[C@@H]2C3(C)C)cc(O)c1O` [SP-8356, (1S,5R)-4-((E)-3,4-dihydroxy-5-methoxystryryl)-6,6-dimethylbicylco[3.1.1]hept-3-en-2-one], the anti-breast cancer activity entry in data set [1] is “potent anti-breast cancer effect”. The CLint scaled (as a rule, the rate of metabolic loss divided by the concentration) at 1 µM in data set [2] (Sprague-Dawley, liver S9 fraction, rat liver S9, +Cofactors) was found to be 2900 mL/min/kg; in data set [4] (liver S9 fraction, human liver S9, +Cofactors) it was 1040 mL/min/kg. The compound further returned an EH in data set [2] (rat, +Cofactors, EH = CLH/QH) of 0.98. For the same compound, the CLH in data set [2] (rat, +Cofactors, predicted by well-stirred model) was 54.0 mL/min/kg; in data set [4] (human, +Cofactors, predicted by well-stirred model) it was 19.6 mL/min/kg. In data set [3] (% versus total AUClast of parent and all detected metabolites), the “AUClast (%)” value was 26.48%. Besides, in data set [3] (AR = peak area ratio versus internal standard), the “AUClast (AR∙h) × 10^2” value is 36.22 (AR∙h) × 10^2. Moreover, the t1/2 came to 2.1 min in data set [4] (human liver S9, +Cofactors (NADPH, UDPGA, PAPS, SAM, GSH)) and 24.1 min in data set [4] (human liver S9, −Cofactors). Besides, the half-life (as a rule, the time needed for the level to fall by half in the phase considered) at 1 µM is under 3 min in data set [4] (human, liver S9 fraction, human liver S9, +Cofactors (NADPH, UDPGA, PAPS, SAM, GSH)) and under 30 min in data set [4] (human, liver S9 fraction, human liver S9, −Cofactors). Moreover, the share remaining at 1 h, 5 µM in data set [5] (pH 7.4, cofactors: AA (1 mM)) came out at 106 ± 2.6%; in data set [5] (pH 7.4, cofactors: GSH (1 mM)), 29.1 ± 6.9%; in data set [5] (pH 7.4, cofactors: GSH + AA), 92.1 ± 1.7%; in data set [5] (pH 7.4, cofactors: GSH + NADPH), 18 ± 1.9%; in data set [5] (pH 7.4, cofactors: GSH + UDPGA + PAPS + SAM), 1.3 ± 0.2%; in data set [5] (pH 7.4, cofactors: NADPH (1 mM)), 21.6 ± 2%. The amount remaining at 1 h, 5 µM in data set [5] (pH 7.4, cofactors: None) was about 20%. Besides, the “SP-8356 (% Remaining at 60 min)” value in data set [5] (cofactors: None, 5 μM) was determined as 20.3 ± 1.9%.
